Measurements reported in article PMC9067983, “Identification of highly selective type II kinase inhibitors with chiral peptidomimetic tails” (Journal of Enzyme Inhibition and Medicinal Chemistry, 2022).
Where a SMILES comes first, the peptide text is derived from it. [ ]: non-standard residue; d: D form. The star is where a group is joined. X1 = Cc1ccc(Nc2ncc3c(n2)N(C)C(=O)N(c2cc(C(=O)*)ccc2C)C3)cn1; Aib = CC(C)(N)C(=O)O

Legend:
Test in all cases: kinase selectivity profiling
Format in all cases: biochemical
Conditions in all cases: 10µM ATP, read-out: % inhibition (relative to DMSO)
[1] = target: T1, CDK2/cyclin E2 (Homo sapiens, UniProt P24941)
T1 construct: purchased Reaction Biology Corp
Experimental: (§1) Full panel kinase profiling and kinase IC50 measurement were performed by using Reaction Biology Corp. (San Diego, USA).

[2] = target: T2, TNK1 (Homo sapiens, UniProt Q13470)
T2 construct: purchased Reaction Biology Corp
T2 sequence (Q13470 whole entry): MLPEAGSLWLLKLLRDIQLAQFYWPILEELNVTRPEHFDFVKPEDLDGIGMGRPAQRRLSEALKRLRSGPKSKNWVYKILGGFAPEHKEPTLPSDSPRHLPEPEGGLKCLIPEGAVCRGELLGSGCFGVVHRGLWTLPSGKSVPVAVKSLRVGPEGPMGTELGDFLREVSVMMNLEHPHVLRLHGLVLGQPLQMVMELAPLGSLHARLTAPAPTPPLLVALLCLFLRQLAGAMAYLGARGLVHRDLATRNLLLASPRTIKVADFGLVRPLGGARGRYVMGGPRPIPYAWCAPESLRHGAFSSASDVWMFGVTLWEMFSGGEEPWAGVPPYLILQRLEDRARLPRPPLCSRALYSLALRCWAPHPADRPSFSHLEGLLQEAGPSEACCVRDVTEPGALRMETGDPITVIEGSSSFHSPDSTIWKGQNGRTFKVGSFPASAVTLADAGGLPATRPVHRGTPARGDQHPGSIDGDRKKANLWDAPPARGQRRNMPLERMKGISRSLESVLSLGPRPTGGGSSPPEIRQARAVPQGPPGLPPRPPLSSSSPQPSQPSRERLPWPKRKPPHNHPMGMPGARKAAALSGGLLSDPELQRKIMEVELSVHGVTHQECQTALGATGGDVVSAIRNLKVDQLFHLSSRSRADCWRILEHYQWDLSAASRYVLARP
Experimental: as §1

[3] = target: T3, CDK8/cyclin C (Homo sapiens, UniProt P49336)
T3 construct: purchased Reaction Biology Corp
Experimental: as §1

[4] = target: T4, GLK/MAP4K3 (Homo sapiens, UniProt Q8IVH8)
T4 construct: purchased Reaction Biology Corp
Experimental: as §1

[5] = target: T5, CDK1/cyclin E (Homo sapiens, UniProt P06493)
T5 construct: purchased Reaction Biology Corp
Experimental: as §1

[6] = target: T6, BTK (Homo sapiens, UniProt Q06187)
T6 construct: purchased Reaction Biology Corp
Experimental: as §1

[7] = target: T7, LATS2 (Homo sapiens, UniProt Q9NRM7)
T7 construct: purchased Reaction Biology Corp
Experimental: as §1

[8] = target: T8, EGFR (Homo sapiens, UniProt P00533)
T8 construct: purchased Reaction Biology Corp
Experimental: as §1

[9] = target: T9, EPHB3 (Homo sapiens, UniProt P54753)
T9 construct: purchased Reaction Biology Corp
Experimental: as §1

[10] = target: T10, ERK7/MAPK15 (Homo sapiens, UniProt Q8TD08)
T10 construct: purchased Reaction Biology Corp
Experimental: as §1

[11] = target: T11, CAMKK2 (Homo sapiens, UniProt Q96RR4)
T11 construct: purchased Reaction Biology Corp
Experimental: as §1

[12] = target: T12, SBK1 (Homo sapiens, UniProt Q52WX2)
T12 construct: purchased Reaction Biology Corp
Experimental: as §1

[13] = target: T13, MKK7 (Homo sapiens, UniProt O14733)
T13 construct: purchased Reaction Biology Corp
Experimental: as §1

[14] = target: T14, Blk (Homo sapiens, UniProt P51451)
T14 construct: purchased Reaction Biology Corp
Experimental: as §1

[15] = target: T15, BRAF (Homo sapiens, UniProt P15056)
T15 construct: purchased Reaction Biology Corp
T15 sequence (P15056 whole entry): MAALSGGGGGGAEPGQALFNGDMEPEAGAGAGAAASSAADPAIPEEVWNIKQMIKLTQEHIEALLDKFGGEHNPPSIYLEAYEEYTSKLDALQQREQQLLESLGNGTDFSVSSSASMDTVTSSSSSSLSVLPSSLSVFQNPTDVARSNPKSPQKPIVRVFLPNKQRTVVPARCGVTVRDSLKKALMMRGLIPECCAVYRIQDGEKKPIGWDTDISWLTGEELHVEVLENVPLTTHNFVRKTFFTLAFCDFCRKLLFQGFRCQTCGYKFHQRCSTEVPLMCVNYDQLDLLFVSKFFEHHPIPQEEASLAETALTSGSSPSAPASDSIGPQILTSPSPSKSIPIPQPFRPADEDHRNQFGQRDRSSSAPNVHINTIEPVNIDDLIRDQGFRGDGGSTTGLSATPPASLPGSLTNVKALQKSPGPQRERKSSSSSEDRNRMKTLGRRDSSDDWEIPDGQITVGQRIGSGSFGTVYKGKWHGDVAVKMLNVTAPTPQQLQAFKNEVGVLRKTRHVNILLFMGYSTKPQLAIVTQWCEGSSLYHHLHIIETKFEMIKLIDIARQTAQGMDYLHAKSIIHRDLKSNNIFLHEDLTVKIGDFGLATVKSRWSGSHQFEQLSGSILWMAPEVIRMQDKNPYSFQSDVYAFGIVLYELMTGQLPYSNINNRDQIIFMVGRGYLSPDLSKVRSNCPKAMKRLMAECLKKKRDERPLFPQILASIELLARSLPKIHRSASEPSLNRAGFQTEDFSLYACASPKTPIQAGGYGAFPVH
Experimental: as §1

[16] = target: T16, IRAK4 (Homo sapiens, UniProt Q9NWZ3)
T16 construct: purchased Reaction Biology Corp
Experimental: as §1

[17] = target: T17, MEK2 (Homo sapiens, UniProt P36507)
T17 construct: purchased Reaction Biology Corp
Experimental: as §1

[18] = target: T18, ACK1 (Homo sapiens, UniProt Q07912)
T18 construct: purchased Reaction Biology Corp
Experimental: as §1

[19] = target: T19, PKAcb (Homo sapiens, UniProt P22694)
T19 construct: purchased Reaction Biology Corp
Experimental: as §1

[20] = target: T20, CAMK2b (Homo sapiens, UniProt Q13554)
T20 construct: purchased Reaction Biology Corp
Experimental: as §1

[21] = target: T21, JNK1 (Homo sapiens, UniProt P45983)
T21 construct: purchased Reaction Biology Corp
Experimental: as §1

[22] = target: T22, IGF1R (Homo sapiens, UniProt P08069)
T22 construct: purchased Reaction Biology Corp
Experimental: as §1

[23] = target: T23, PIM3 (Homo sapiens, UniProt Q86V86)
T23 construct: purchased Reaction Biology Corp
Experimental: as §1

[24] = target: T24, NEK11 (Homo sapiens, UniProt Q8NG66)
T24 construct: purchased Reaction Biology Corp
Experimental: as §1

[25] = target: T25, CDK1/cyclin A (Homo sapiens, UniProt P06493)
T25 construct: purchased Reaction Biology Corp
Experimental: as §1

[26] = target: T26, EPHA6 (Homo sapiens, UniProt Q9UF33)
T26 construct: purchased Reaction Biology Corp
Experimental: as §1

[27] = target: T27, STK38/NDR1 (Homo sapiens, UniProt Q15208)
T27 construct: purchased Reaction Biology Corp
Experimental: as §1

[28] = target: T28, CHK2 (Homo sapiens, UniProt O96017)
T28 construct: purchased Reaction Biology Corp
Experimental: as §1

[29] = target: T29, ARAF (Homo sapiens, UniProt P10398)
T29 construct: purchased Reaction Biology Corp
T29 sequence (P10398 whole entry): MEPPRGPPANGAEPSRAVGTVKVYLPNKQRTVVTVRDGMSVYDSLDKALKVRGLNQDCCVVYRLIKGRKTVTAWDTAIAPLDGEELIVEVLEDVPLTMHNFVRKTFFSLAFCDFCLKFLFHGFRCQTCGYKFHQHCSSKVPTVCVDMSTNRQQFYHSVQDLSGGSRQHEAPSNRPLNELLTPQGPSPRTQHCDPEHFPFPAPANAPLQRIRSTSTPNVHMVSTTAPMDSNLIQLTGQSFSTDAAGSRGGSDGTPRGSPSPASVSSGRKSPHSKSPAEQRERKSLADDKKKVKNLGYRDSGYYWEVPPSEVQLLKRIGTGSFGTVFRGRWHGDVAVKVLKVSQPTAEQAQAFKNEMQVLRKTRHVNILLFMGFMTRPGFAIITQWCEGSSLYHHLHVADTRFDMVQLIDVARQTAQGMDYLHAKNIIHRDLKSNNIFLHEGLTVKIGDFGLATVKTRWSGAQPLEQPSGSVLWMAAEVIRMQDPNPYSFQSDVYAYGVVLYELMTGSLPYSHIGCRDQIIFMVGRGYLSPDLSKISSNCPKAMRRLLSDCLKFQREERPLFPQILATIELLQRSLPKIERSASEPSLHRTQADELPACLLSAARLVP
Experimental: as §1

[30] = target: T30, ALK (Homo sapiens, UniProt Q9UM73)
T30 construct: purchased Reaction Biology Corp
T30 sequence (Q9UM73 19-1620): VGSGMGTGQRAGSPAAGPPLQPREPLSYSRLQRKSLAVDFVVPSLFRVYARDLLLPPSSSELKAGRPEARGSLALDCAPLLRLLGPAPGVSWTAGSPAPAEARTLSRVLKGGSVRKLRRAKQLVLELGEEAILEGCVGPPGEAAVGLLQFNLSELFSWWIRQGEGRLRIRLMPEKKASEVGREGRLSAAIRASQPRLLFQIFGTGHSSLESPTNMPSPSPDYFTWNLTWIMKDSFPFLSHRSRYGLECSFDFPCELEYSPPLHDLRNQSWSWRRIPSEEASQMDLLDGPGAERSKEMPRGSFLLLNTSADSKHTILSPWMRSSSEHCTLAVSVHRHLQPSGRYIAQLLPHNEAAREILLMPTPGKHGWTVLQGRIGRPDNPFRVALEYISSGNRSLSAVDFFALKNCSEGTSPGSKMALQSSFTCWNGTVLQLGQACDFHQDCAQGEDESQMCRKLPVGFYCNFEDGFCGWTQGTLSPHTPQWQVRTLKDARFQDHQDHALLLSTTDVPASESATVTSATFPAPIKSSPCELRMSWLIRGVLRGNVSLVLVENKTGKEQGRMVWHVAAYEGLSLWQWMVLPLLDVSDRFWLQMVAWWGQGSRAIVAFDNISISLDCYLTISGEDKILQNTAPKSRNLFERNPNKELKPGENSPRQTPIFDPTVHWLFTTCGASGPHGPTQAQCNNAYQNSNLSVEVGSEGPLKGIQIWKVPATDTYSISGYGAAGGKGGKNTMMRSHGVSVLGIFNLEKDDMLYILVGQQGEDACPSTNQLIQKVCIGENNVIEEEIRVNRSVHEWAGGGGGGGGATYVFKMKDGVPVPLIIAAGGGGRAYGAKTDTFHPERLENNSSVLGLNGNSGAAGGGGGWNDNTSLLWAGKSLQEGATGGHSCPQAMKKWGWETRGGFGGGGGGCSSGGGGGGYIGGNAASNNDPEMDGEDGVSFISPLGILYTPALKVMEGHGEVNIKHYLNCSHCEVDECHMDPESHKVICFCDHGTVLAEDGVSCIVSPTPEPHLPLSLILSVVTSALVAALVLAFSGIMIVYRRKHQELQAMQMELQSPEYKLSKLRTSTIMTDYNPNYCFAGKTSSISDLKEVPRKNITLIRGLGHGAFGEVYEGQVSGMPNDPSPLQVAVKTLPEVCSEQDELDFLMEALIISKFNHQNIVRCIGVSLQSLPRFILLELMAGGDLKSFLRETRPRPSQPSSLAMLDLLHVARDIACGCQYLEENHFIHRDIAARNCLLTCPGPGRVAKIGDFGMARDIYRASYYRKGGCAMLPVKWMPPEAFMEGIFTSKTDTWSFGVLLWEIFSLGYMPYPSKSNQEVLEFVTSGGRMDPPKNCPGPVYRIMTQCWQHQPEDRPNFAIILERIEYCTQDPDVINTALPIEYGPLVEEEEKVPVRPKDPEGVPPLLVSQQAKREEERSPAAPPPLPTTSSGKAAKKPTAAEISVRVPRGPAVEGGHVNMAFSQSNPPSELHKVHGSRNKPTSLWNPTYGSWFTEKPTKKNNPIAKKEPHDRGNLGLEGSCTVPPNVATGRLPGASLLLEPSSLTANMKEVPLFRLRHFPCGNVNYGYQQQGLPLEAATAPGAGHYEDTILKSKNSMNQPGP
Experimental: as §1

[31] = target: T31, CAMK2a (Homo sapiens, UniProt Q9UQM7)
T31 construct: purchased Reaction Biology Corp
Experimental: as §1

[32] = target: T32, HGK/MAP4K4 (Homo sapiens, UniProt O95819)
T32 construct: purchased Reaction Biology Corp
Experimental: as §1

[33] = target: T33, CDK6/cyclin D3 (Homo sapiens, UniProt Q00534)
T33 construct: purchased Reaction Biology Corp
Experimental: as §1

[34] = target: T34, CAMK2g (Homo sapiens, UniProt Q13555)
T34 construct: purchased Reaction Biology Corp
Experimental: as §1

[35] = target: T35, NEK2 (Homo sapiens, UniProt P51955)
T35 construct: purchased Reaction Biology Corp
Experimental: as §1

[36] = target: T36, WNK2 (Homo sapiens, UniProt Q9Y3S1)
T36 construct: purchased Reaction Biology Corp
Experimental: as §1

[37] = target: T37, DYRK1B (Homo sapiens, UniProt Q9Y463)
T37 construct: purchased Reaction Biology Corp
Experimental: as §1

[38] = target: T38, TSSK3/STK22C (Homo sapiens, UniProt Q96PN8)
T38 construct: purchased Reaction Biology Corp
T38 sequence (Q96PN8 whole entry): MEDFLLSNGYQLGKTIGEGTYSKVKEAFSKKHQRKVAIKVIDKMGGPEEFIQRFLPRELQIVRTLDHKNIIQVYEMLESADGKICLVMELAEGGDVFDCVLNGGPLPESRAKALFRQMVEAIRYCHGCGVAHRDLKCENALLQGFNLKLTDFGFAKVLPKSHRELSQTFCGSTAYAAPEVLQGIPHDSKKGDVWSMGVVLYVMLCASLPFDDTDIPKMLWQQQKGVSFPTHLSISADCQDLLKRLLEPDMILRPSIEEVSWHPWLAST
Experimental: as §1

[39] = target: T39, NEK6 (Homo sapiens, UniProt Q9HC98)
T39 construct: purchased Reaction Biology Corp
Experimental: as §1

[40] = target: T40, MNK2 (Homo sapiens, UniProt Q9HBH9)
T40 construct: purchased Reaction Biology Corp
Experimental: as §1

[41] = target: T41, MUSK (Homo sapiens, UniProt O15146)
T41 construct: purchased Reaction Biology Corp
Experimental: as §1

[42] = target: T42, PAK5 (Homo sapiens, UniProt Q9P286)
T42 construct: purchased Reaction Biology Corp
T42 sequence (Q9P286 whole entry): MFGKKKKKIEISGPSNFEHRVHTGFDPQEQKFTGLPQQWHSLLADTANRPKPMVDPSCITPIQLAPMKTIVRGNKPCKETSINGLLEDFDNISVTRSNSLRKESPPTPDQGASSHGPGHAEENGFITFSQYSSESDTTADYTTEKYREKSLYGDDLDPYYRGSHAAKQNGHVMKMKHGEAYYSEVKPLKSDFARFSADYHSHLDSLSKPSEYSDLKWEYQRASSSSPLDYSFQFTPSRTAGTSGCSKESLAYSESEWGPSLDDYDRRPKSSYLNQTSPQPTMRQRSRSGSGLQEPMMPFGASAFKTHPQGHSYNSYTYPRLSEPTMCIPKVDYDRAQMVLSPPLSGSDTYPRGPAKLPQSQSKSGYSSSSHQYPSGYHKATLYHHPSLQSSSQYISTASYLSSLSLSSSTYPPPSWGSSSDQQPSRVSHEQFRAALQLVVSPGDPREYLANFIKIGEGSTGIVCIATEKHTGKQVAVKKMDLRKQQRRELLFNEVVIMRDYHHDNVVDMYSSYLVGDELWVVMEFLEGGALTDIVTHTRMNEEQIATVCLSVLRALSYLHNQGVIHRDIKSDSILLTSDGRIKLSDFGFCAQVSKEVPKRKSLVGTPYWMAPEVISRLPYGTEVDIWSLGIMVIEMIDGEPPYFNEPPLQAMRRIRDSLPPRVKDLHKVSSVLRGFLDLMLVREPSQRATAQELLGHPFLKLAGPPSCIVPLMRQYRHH
Experimental: as §1

[43] = target: T43, FGFR3 (Homo sapiens, UniProt P22607)
T43 construct: purchased Reaction Biology Corp
Experimental: as §1

## Cc1ccc(Nc2ncc3c(n2)N(C)C(=O)N(c2cc(C(=O)N[C@H](C(=O)N4CCC[C@H]4C(=O)NC(C)(C)C(=O)N[C@@H](CC(C)C)C(=O)N(C)C)C(C)C)ccc2C)C3)cn1 [7a, (S)-N-(1-(((S)-1-(dimethylamino)-4-methyl-1-oxopentan-2-yl)amino)-2-methyl-1-oxopropan-2-yl)-1-((4-methyl-3-(1-methyl-7-((6-methylpyridin-3-yl)amino)-2-oxo-1,4-dihydropyrimido[4,5-d]pyrimidin-3(2H)-yl)benzoyl)-L-valyl)pyrrolidine-2-carboxamide] (X1-VP[Aib]L-NMe2)
[1]
  inhibition at 1 µM: 0%
[2]
  inhibition at 1 µM: 2%
[3]
  inhibition at 1 µM: 2%
[4]
  inhibition at 1 µM: 9%
[5]
  inhibition at 1 µM: 0%
[6]
  inhibition at 1 µM: 6%
[7]
  inhibition at 1 µM: 1%
[8]
  inhibition at 1 µM: 0%
[9]
  inhibition at 1 µM: 8%
[10]
  inhibition at 1 µM: 3%
[11]
  inhibition at 1 µM: 10%
[12]
  inhibition at 1 µM: 0%
[13]
  inhibition at 1 µM: 2%
[14]
  inhibition at 1 µM: 73%
[15]
  inhibition at 1 µM: 7%
[16]
  inhibition at 1 µM: 4%
[17]
  inhibition at 1 µM: 11%
[18]
  inhibition at 1 µM: 0%
[19]
  inhibition at 1 µM: 3%
[20]
  inhibition at 1 µM: 3%
[21]
  inhibition at 1 µM: 0%
[22]
  inhibition at 1 µM: 0%
[23]
  inhibition at 1 µM: 0%
[24]
  inhibition at 1 µM: 1%
[25]
  inhibition at 1 µM: 0%
[26]
  inhibition at 1 µM: 5%
[27]
  inhibition at 1 µM: 0%
[28]
  inhibition at 1 µM: 4%
[29]
  inhibition at 1 µM: 34%
[30]
  inhibition at 1 µM: 0%
[31]
  inhibition at 1 µM: 8%
[32]
  inhibition at 1 µM: 0%
[33]
  inhibition at 1 µM: 0%
[34]
  inhibition at 1 µM: 0%
[35]
  inhibition at 1 µM: 0%
[36]
  inhibition at 1 µM: 7%
[37]
  inhibition at 1 µM: 11%
[38]
  inhibition at 1 µM: 3%
[39]
  inhibition at 1 µM: 0%
[40]
  inhibition at 1 µM: 1%
[41]
  inhibition at 1 µM: 7%
[42]
  inhibition at 1 µM: 9%
[43]
  inhibition at 1 µM: 0%
